What is called inhibition is the percentage by which the read-out fell short of the control. The low end stands for little suppression, the high end for strong suppression. In general, Ki refers to a dissociation constant, usually derived from enzyme kinetics or from competition with a known ligand. A higher Ki goes with weaker binding.

The target in assay [1] is Serotonin 3 (5-HT3) receptor. Nature of the assay: Binding affinity towards human 5-hydroxytryptamine 3 serotonin membrane receptor using [3H]GR-65630 at 10 uM.
For assay [2], the target named is Neuronal acetylcholine receptor subunit alpha-7 (Homo sapiens, UniProt P36544). Nature of the assay: Binding affinity towards human nicotinic acetylcholine receptor alpha 7 expressed in GH4C1 cell using [3H]methyllycaconitine. It counts as cell-based, GH4-C1.
Neuronal acetylcholine receptor subunit alpha-7, sequence (P36544 whole entry): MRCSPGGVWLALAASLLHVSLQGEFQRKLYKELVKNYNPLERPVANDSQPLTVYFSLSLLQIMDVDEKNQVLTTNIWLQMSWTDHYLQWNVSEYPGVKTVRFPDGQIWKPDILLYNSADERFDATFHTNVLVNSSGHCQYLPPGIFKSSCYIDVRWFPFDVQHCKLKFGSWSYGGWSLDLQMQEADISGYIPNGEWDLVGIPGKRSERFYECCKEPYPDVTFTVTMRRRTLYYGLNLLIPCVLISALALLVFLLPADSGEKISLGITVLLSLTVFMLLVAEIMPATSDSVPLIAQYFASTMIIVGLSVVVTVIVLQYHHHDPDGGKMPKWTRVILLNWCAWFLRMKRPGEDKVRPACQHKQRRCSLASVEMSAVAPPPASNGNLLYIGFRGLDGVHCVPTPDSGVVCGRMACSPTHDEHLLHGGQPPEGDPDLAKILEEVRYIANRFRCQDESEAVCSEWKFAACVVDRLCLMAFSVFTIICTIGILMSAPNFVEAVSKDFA
For assay [3], the target named is Serotonin 3 (5-HT3) receptor. Nature of the assay: Binding affinity for human 5-hydroxytryptamine 3 serotonin membrane receptor using [3H]GR-65630.

Regarding `O=C(N[C@H]1CN2CCC1CC2)c1ccc(-c2ccccn2)s1`, the inhibition in assay [1] came to 15.5%. In assay [2], this molecule had a Ki of 0.0013 µM. The matching figures for `CC(=O)O.O=C(N[C@H]1CN2CCC1CC2)c1ccc(-c2ccccc2)s1`: 24% and 0.0018 µM. Consider `O=C(NC1CN2CCC1CC2)c1ccc(-c2ccccc2)s1` (stereo not given), for which the Ki in assay [3] stood at 2.02 µM; in assay [2], 0.0034 µM.

Turning to `O=C(NC1CN2CCC1CC2)c1ccc(-c2ccccn2)s1` (stereo not given), in assay [1], the inhibition is on record as 28%. Moreover, the Ki in assay [2] is 0.0069 µM.

`O=C(NC1CN2CCC1CC2)c1csc(-c2ccccc2)n1` (stereo not given): the Ki was 0.665 µM in assay [3] and 0.121 µM in assay [2]. In assay [1], `O=C(NC1CN2CCC1CC2)c1ccc(-c2ccccc2Cl)s1` (stereo not given) registered an inhibition of 45%. The same molecule registered a Ki in assay [2] of 0.525 µM.

In turn, `c1cncc(CNc2cnc3c(c2)C[C@@]2(CN4CCC2CC4)O3)c1` had a Ki in assay [3] of 2.22 µM. In the case of `CCN1C[C@]2(COC(=O)c3ccccc3N3C(=O)C[C@H](C)C3=O)CC[C@H](OC)[C@@]34[C@@H]5C[C@H]6[C@H](OC)[C@@H]5[C@](O)(C[C@@H]6OC)[C@](O)([C@@H](OC)[C@H]23)[C@@H]14` [METHYLLYCACONITINE], the inhibition in assay [1] came out at 16.5%. In assay [2], this molecule returned a Ki of 0.0073 µM. As for `O=C(NC1CN2CCC1CC2)c1ccc(-c2cccs2)s1` (stereo not given), the Ki in assay [3] was 1.04 µM; in assay [2], 0.0011 µM. As for `O=C(N[C@H]1CN2CCC1CC2)c1ccc(-c2ccccc2)s1` (racemic), the Ki in assay [3] worked out at 2.02 µM; in assay [2] it was 0.0034 µM.

With `c1ccc(-c2cnc3c(c2)C[C@@]2(CN4CCC2CC4)O3)cc1`, the Ki in assay [3] came to 0.073 µM; in assay [2] it was 0.0031 µM.

As for `O=C1NC[C@]2(CN3CCC2CC3)O1`, in assay [1], the inhibition is recorded as 2.5%.

Turning to `O=C(N[C@@H]1CN2CCC1CC2)c1ccc(-c2ccccc2)s1`, the Ki in assay [3] is 1.55 µM; in assay [2], 0.0269 µM. The like results for `O=C(NC1CN2CCC1CC2)c1csc(-c2ccccc2)c1` (stereo not given) were, in that order, 0.409 µM and 0.0167 µM. `COc1ccccc1-c1ccc(C(=O)NC2CN3CCC2CC3)s1` (stereo not given) had an inhibition in assay [1] of 27%. This molecule also gave a Ki in assay [2] of 0.268 µM.

As for `O=C(NC1CN2CCC1CC2)c1cc(-c2ccccc2)sn1` (stereo not given), the inhibition in assay [1] was determined as 28%. The same molecule had a Ki in assay [2] of 0.0041 µM.

These data come from ChEMBL document CHEMBL1143459, “High affinity ligands for the alpha7 nicotinic receptor that show no cross-reactivity with the 5-HT3 receptor” (Bioorg Med Chem Lett, 2005).
